According to patent EP0170168A2, “N,N,-diethyl, N'-aryl, N'-(dichlorfluormethylthio)sulfamide-microbiocides” (BAYER AG, priority 1984, dated 1986):

Experiments:
Coriolus versicolor = test: Toxic limit values on impregnated wood discs (method after Sutter), beech wood; type: cell-based; details: Coriolus versicolor (Buche)
Source text: (§1) Bestimmung der toxischen Grenzwerte (kg/m^3 Holz) der Wirkstoffe gemäß Beispiel 1 und 2 für Coniophora puteana bzw. Coriolus versicolor auf Kiefern- bzw. Buchenholz. Die Bestimmung der toxischen Grenzwerte erfolgt in Anlehnung an die von H.P. Sutter, Int. Biodeterioration Bulletin 14 (3), 1978, Seiten 95 bis 99, beschriebenen Methode.
(§2) Für die Tests werden jeweils frisch geschnittene dünne Stirnholzscheibchen (Größe 40 x 40 mm, Dicke etwa 2 mm) im Vakuum mit Lösungen unterschiedlich definierter Wirkstoffkonzentration getränkt. Die Menge des absorbierten Wirkstoffs in kg/m^3 Holz wird aus der Retention der Lösung (durch Einzelwägung der Holzproben vor und nach der Imprägnierung bestimmt), der Holzdichte und der Konzentration des Wirkstoffs in der verwendeten Imprägnierlösung errechnet.
(§3) Je 5 der 15 getrockneten Prüflinge einer Wirkstoffkonzentration werden dem Pilzangriff ohne Belastung ausgesetzt, 5 weitere Proben werden vorher im Windkanal (Windgeschwindigkeit: 1 + 0,1 m/sec; Temp.: 40 + 2°C) 4 Wochen lang belastet, 5 andere Prüflinge werden einer Wässerung in Anlehnung an DIN EN 84 unterzogen (14 Tage Lagerung in dest. Wasser bei 20°C, 9-maliger Wasserwechsel).
(§4) Für den mykologischen Test werden die Prüflinge nach Sterilisieren mit Propylenoxid einzeln auf das voll entwickelte Pilzmycel des Prüfpilzes auf Malzextraktagar in Petrischalen aufgelegt, durch Distanzhalter beträgt der Abstand zwischen Agaroberfläche und Probe ca. 5 mm. Nach 6wöchiger Lagerung bei 21-23°C wird der Zerstörungsgrad der Prüfling visuell beurteilt.
(§5) Als Grenzwerte der toxischen Wirkung werden die beiden Konzentrationen des Wirkstoffs in kg/m^3 Holz ermittelt, bei denen das Holz gerade noch und nicht mehr angegriffen wird.
(§6) In der folgenden Tabelle sind die Mittelwerte der Toxizitätsgrenzwerte für die erfindungsgemäßen Substanzen gemäß Beispiel 1 und 2 sowie für den bekannten Wirkstoff Dichlorfluonid für zwei Prüfpilze und zwei verschiedene Holzarten angegeben.
(§7) Mittlere Toxizitätsgrenzen (kg/m^3 Holz) von Wirkstoffen gemäß Beispiel 1 und 2 für holzzerstörende Pilze.

Coniophora puteana = test: Toxic limit values on impregnated wood discs (method after Sutter), pine wood; type: cell-based; details: Coniophora puteana (Kiefer)
Source text: as §1, §2, §3, §4, §5, §6, §7

[1] = Solubility in organic solvents for wood preservatives; type: physicochemical; details: for Löslichkeit (%) in Shellsol AB: solvent Shellsol AB; for Löslichkeit (%) in Testbenzin: solvent Testbenzin
Source text: Löslichkeiten erfindungsgemäßer Wirkstoffe nach Beispiel 1 und 2 im Vergleich zum handelsüblichen Dichlofluanid in organischen Lösungsmitteln für Holzschutzmittel
(Testbenzin und Shellsol AB sind handelsübliche niedrigsiedende Kohlenwasserstoffe).

[2] = nach Belüftung (wind tunnel 4 weeks, 40°C)
[3] = nach Wässerung (14 days in distilled water, 20°C)
[4] = ohne Belastung, 6 weeks at 21-23°C

## CCN(CC)S(=O)(=O)N(SC(F)(Cl)Cl)c1ccccc1 [Beispiel 1, N,N-Diethyl-N'-phenyl-N'-(dichlorfluormethylthio)-sulfamid]
Coriolus versicolor; [2]
  Mittlere Toxizitätsgrenzen: 2,7 kg/m^3 Holz
Coriolus versicolor; [3]
  Mittlere Toxizitätsgrenzen: 1,1 kg/m^3 Holz
Coriolus versicolor; [4]
  Mittlere Toxizitätsgrenzen: 0,6 kg/m^3 Holz
Coniophora puteana; [2]
  Mittlere Toxizitätsgrenzen: 2,0 kg/m^3 Holz
Coniophora puteana; [3]
  Mittlere Toxizitätsgrenzen: 0,8 kg/m^3 Holz
Coniophora puteana; [4]
  Mittlere Toxizitätsgrenzen: 0,4 kg/m^3 Holz
[1]
  Löslichkeit (%) in Shellsol AB: 71%
  Löslichkeit (%) in Testbenzin: 16%

## CCN(CC)S(=O)(=O)N(SC(F)(Cl)Cl)c1ccc(C)cc1 [Beispiel 2, N,N-Diethyl-N'-(p-tolyl)-N'-(dichlorfluormethylthio)-sulfamid]
Coriolus versicolor; [4]
  Mittlere Toxizitätsgrenzen: 1,5 kg/m^3 Holz
Coniophora puteana; [4]
  Mittlere Toxizitätsgrenzen: 0,7 kg/m^3 Holz
[1]
  Löslichkeit (%) in Shellsol AB: 67%
  Löslichkeit (%) in Testbenzin: 59%

## CN(C)S(=O)(=O)N(SC(F)(Cl)Cl)c1ccccc1 [Dichlofluanid, N,N-Dimethyl-N'-phenyl-N'-(fluordichlormethylthio)-sulfamid, reference compound]
Coriolus versicolor; [2]
  Mittlere Toxizitätsgrenzen: 3,5 kg/m^3 Holz
Coriolus versicolor; [3]
  Mittlere Toxizitätsgrenzen: 3,2 kg/m^3 Holz
Coriolus versicolor; [4]
  Mittlere Toxizitätsgrenzen: 2,5 kg/m^3 Holz
Coniophora puteana; [2]
  Mittlere Toxizitätsgrenzen: 3,7 kg/m^3 Holz
Coniophora puteana; [3]
  Mittlere Toxizitätsgrenzen: 2,4 kg/m^3 Holz
Coniophora puteana; [4]
  Mittlere Toxizitätsgrenzen: 1,9 kg/m^3 Holz
[1]
  Löslichkeit (%) in Shellsol AB: 6%
  Löslichkeit (%) in Testbenzin: 1,2%
